The text below walks through data of patent US5658888A, “Erythromycin derivatives” (Chugai Seiyaku Kabushiki Kaisha, priority 1992, dated 1997).

For series [1] the following is noted: background statement; cited from earlier work.
Series [2] addresses T1, motilin receptor (Oryctolagus cuniculus, UniProt G1T803).
T1 construct: From a killed rabbit was removed the duodenum; from tissue; host or cells: rabbit duodenum homogenate (mucous membrane detached from the tunica muscularis, homogenized in 50 mM Tris pH 7.4)
As to the kind of experiment: motilin receptor binding test (displacement of 125I-labelled motilin). Also on record: species or system rabbit. As to conditions: for activity in the hydrochloric acid solution compared with that in the DMSO solution: HCl pH 2.5, 120 min vs. DMSO. As for the experimental part: A motilin receptor binding test was conducted in the manner described hereunder [V. Bormans, et al., Regul. Peptides, 15, 143 (1986)].
(§1) From a killed rabbit was removed the duodenum, of which the mucous membrane was detached from the tunica muscularis and then homogenized in a 50 mM Tris solution (pH 7.4) to prepare a protein solution. Twenty-five pM of ^125 I-labelled motilin (purchased from Ohtsuka Assay Laboratory) and the protein solution were incubated at 25° C. for 120 minutes, after which the radioactivity of the protein was measured with a γ-ray counter, the difference between the radioactivity observed in the case of non-addition of motilin and that observed in the case of addition of an excess (1×10^-7 m) of motilin being defined as the specific binding capacity. The efficacies of the samples were expressed as IC50 (M), the concentration of each of the test drugs which reduces the specific binding capacity to 50%. The test drug was dissolved in a DMSO solution and added to the protein solution (the final DMSO concentration:1%). In experiments on investigation of the acid resistance, the test drug was dissolved in a hydrochloric acid solution (pH 2.5) which was then allowed to stand at room temperature for 120 minutes prior to its addition to the protein solution for the experiments.

The subject of series [3] is gastric antrum contractile motility. As to the kind of experiment: gastrointestinal motility of the conscious dog (force transducers, intragastric administration). It counts as in vivo, Beagle dog. As to conditions: for ED (MI=150): Canis lupus familiaris, po, conscious dog, interdigestive state, gastric antrum, read-out: MI150 (test drug dosage required to provide MI=150); for gastrointestinal contractile activity (in words): administered into the stomach. As for the experimental part: The gastrointestinal motility of the conscious dog was measured according to the method described previously [Itoh, Zen, Journal of the Smooth Muscle Research, 13, 33 (1976)]. Beagle dogs weighing approximately 10 kg were anesthetized with an intravenously (i.v.) injection of pentobarbital sodium and the abdominal cavity was opened under aseptic conditions. Extraluminal force transducers were sutured onto the serosa of the gastric antrum (stomach), duodenum and jejunum in a manner to measure circular muscle contraction. In addition, a Silastic tube [French, size 6.5, Dow Corning, Midland, Mich., U.S.A.) was placed into the stomach for direct administration of test drugs into the stomach. The lead wires of these force transducers and a Silastic tube were led out of the abdominal cavity and through a skin incision made between the scapulae. After the operation, the dogs were housed in individual experimental cages and given commercial dog food once a day.
The gastrointestinal motor activity was recorded on a thermal pen-writing recorder (WR-3101, Graphtec, Tokyo, Japan) by connecting the lead wires of the transducers to the connecting cables from the amplifiers (UG-5, Nihon Kohden, Tokyo, Japan). About 2 weeks postoperatively, gastrointestinal contractile activity could be divided into two main patterns of activity, interdigestive and digestive state. In the interdigestive state, IMC (interdigestive migrating contractions) were seen to occur at regular intervals of 100-120 minutes in the gastric antrum and migrated through the duodenum and jejunum at a constant velocity. In all animals, feeding disrupted the regular IMC pattern. Experiments were carried out during interdigestive state. The test drug was directly injected into the stomach through a Silastic tube placed in the stomach in a volume of 3 ml, 15 min after the end of the IMC in the gastric antrum. Test drugs were dissolved in ethanol, and then diluted with 0.9% physiological saline.
To measure motility quantitatively, the signals from the gastric antrum were relayed to a personal computer (PC-9801, NEC, Tokyo, Japan) every 100 ms. The area surrounded by the contraction waves and the base line, i.e., the product of the amplitude (voltage) and the time in minutes during a certain fixed period, was calculated, expressed as percent of the area assuming that maximum contraction (amplitude) of the interdigestive migrating contraction lasted for 1 min, and used as the motor index (MI) [Inatomi et al., J. Pharmacol. Exp. Ther. 251, 707 (1989)]. The MI, which is calculated in this manner, of the naturally occurred in the gastric antrum is about 100-200. Therefore, the test drug dosage required to provide MI=150 was defined to be MI150 which was used as the index of the stimulating effects or the gastric motility of test drugs.

The nature of series [4]: acid resistance / decomposition by acid. The series is classed as physicochemical. As to conditions: compared with EM-523 / publicly known erythromycin derivatives. On the procedure: as §1

Like-named read-outs stand apart in the source and are kept apart here.

T1 sequence (G1T803 1-400): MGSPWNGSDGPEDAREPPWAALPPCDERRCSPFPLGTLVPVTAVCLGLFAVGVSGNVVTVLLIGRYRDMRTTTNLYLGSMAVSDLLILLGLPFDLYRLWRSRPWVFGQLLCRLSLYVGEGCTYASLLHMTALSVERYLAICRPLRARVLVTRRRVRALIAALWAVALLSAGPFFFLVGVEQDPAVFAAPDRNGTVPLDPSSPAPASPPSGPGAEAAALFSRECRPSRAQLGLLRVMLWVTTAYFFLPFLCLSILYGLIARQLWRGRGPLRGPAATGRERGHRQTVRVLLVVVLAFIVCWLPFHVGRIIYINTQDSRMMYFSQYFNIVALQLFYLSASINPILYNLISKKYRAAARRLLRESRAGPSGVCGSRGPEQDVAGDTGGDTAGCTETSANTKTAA

`CC[C@H]1OC(=O)[C@H](C)[C@@H](O[C@H]2C[C@@](C)(OC)[C@@H](O)[C@H](C)O2)[C@H](C)[C@@H](O[C@@H]2O[C@H](C)C[C@H](N(C)CC)[C@H]2O)[C@@]2(C)CC(C)=C(O2)[C@H](C)[C@@H](O)[C@]1(C)O` [EM-523, reference compound]: the “stability in the presence of an acid (in words)” value in series [1] is “unstable in the presence of an acid”. For the same compound, in series [2], the “level of activity in DMSO solution (comparison of Compound 6 and EM-523)” value is recorded as “the same level of activity”; the “activity in the hydrochloric acid solution compared with that in the DMSO solution” value is listed as “a decrease in the activity to one-100th that in the DMSO solution”. In series [3] (intragastric), the ED (MI=150) amounted to 14.6 µg/kg. The “gastrointestinal contractile activity (in words)” value in series [3] is listed as “increased gastrointestinal contractile activity”.
For `CC[C@H]1OC(=O)[C@H](C)[C@@H](O[C@H]2C[C@@](C)(OC)[C@@H](O)[C@H](C)O2)[C@H](C)[C@@H](O[C@@H]2O[C@H](C)C[C@H](N(C)C(C)C)[C@H]2O)[C@@]2(C)CC(C)=C(O2)[C@H](C)C(=O)[C@]1(C)OC` [Compound 6, isopropyl-nor-12-O-methyl-11-oxo-8,9-anhydroerythromycin A 6,9-hemiketal], in series [2], the “level of activity in DMSO solution (comparison of Compound 6 and EM-523)” value is given as “the same level of activity”; the “activity in the hydrochloric acid solution compared with that in the DMSO solution” value is given as “differing little from the value in the DMSO solution”. Moreover, the IC50 in series [2] (test drug in DMSO solution (final DMSO 1%), rabbit duodenum, 25 pM 125I-motilin, 25° C., 120 min, pH 7.4, read-out: IC50, Solution in DMSO) came to 4.1 nM. Also, the IC50 in series [2] (test drug stood in hydrochloric acid solution (pH 2.5) at room temperature for 120 minutes before the assay, read-out: IC50, Solution in HCl) was determined as 9.1 nM. The “decomposition by acid (in words)” value in series [4] was “less decomposable with an acid than is EM-523”. Also, the ED (MI=150) in series [3] (intragastric) was determined as 3.8 µg/kg. Further, in series [3], the “gastrointestinal contractile activity (in words)” value is “increased gastrointestinal contractile activity”. For the same compound, in series [3] (intragastric, ratio of potency to EM-523), the “contractile activity in the gastric antrum relative to EM-523” value is listed as “about 4 times”.
